The values below come from PubChem BioAssay AID1053146 (Broad Institute, 2014).

The subject of the test is HepG2 BODIPY-LDL uptake, high-content imaging. Description: LDL uptake enhancers in HepG2, dose response, imaging, BODIPY-LDL, cherry-pick (AID 1053146).

The structures appear in SMILES notation.

As a reminder, the EC50 is the midpoint of the concentration-response curve. Take `CN1C(=O)c2cc(NC(=O)c3ccc(C(F)(F)F)cc3)ccc2OC[C@@H]2O[C@H](CC(=O)NC3Cc4ccccc4C3)CC[C@@H]21`: the EC50 is 1100 nM.

For the molecule `CN1C(=O)c2cc(NC(=O)c3ccc(C(F)(F)F)cc3)ccc2OC[C@@H]2O[C@@H](CC(=O)NC3Cc4ccccc4C3)CC[C@@H]21`, the EC50 was 4600 nM.
